In PubChem BioAssay (NCI):
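The compound was tested at five concentrations on cells cultured in 96-well plates, with a 48-hour exposure period. GI50 is the concentration that inhibits growth by half. TGI denotes the concentration required for complete inhibition of growth.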

Columns and labels:
Experiment in all cases: NCI anticancer screen, dose series, 48 h
[1] = system: 786-0 renal
[2] = system: A498 renal
[3] = system: A549 NSCLC
[4] = system: ACHN renal
[5] = system: BT-549 breast
[6] = system: CAKI-1 renal
[7] = system: CCRF-CEM leukemia
[8] = system: COLO 205 colon
[9] = system: DU-145 prostate
[10] = system: EKVX NSCLC
[11] = system: HCC-2998 colon
[12] = system: HCT-116 colon
[13] = system: HCT-15 colon
[14] = system: HL-60(TB) leukemia
[15] = system: HOP-62 NSCLC
[16] = system: HOP-92 NSCLC
[17] = system: HS 578T breast
[18] = system: HT29 colon
[19] = system: IGROV1 ovarian
[20] = system: K-562 leukemia
[21] = system: KM12 colon
[22] = system: LOX IMVI melanoma
[23] = system: M14 melanoma
[24] = system: MALME-3M melanoma
[25] = system: MCF7 breast
[26] = system: MDA-MB-231 breast
[27] = system: MDA-MB-435
[28] = system: MDA-MB-468 breast
[29] = system: MOLT-4 leukemia
[30] = system: NCI-H226 lung
[31] = system: NCI-H23 lung
[32] = system: NCI-H460 lung
[33] = system: NCI-H522 lung
[34] = system: OVCAR-3 ovarian
[35] = system: OVCAR-4 ovarian
[36] = system: OVCAR-5 ovarian
[37] = system: OVCAR-8 ovarian
[38] = system: PC-3 prostate
[39] = system: RPMI-8226 leukemia
[40] = system: RXF 393 renal
[41] = system: SF-268 CNS
[42] = system: SF-295 CNS
[43] = system: SF-539 CNS
[44] = system: SK-MEL-28 melanoma
[45] = system: SK-MEL-5 melanoma
[46] = system: SK-OV-3 ovarian
[47] = system: SN12C renal
[48] = system: SNB-19 CNS
[49] = system: SNB-75 CNS
[50] = system: SR leukemia
[51] = system: SW-620 colon
[52] = system: T-47D breast
[53] = system: TK-10 renal
[54] = system: U251 CNS
[55] = system: UACC-257 melanoma
[56] = system: UACC-62 melanoma
[57] = system: UO-31 renal

SMILES: Cc1ccc(C(SCCNCc2cc(N(C)C)ccn2)(c2ccccc2)c2ccccc2)cc1
- GI50 [1]: 1.88 µM
- TGI [1]: 3.83 µM
- GI50 [2]: 13.4 µM
- TGI [2]: 27 µM
- GI50 [3]: 4.13 µM
- TGI [3]: 18 µM
- GI50 [4]: 4.72 µM
- TGI [4]: 17.3 µM
- GI50 [5]: 2.94 µM
- TGI [5]: 7.87 µM
- GI50 [6]: 3.28 µM
- TGI [6]: 15.5 µM
- GI50 [7]: 2.03 µM
- TGI [7]: 8.53 µM
- GI50 [8]: 1.7 µM
- TGI [8]: 3.17 µM
- GI50 [9]: 3.54 µM
- TGI [9]: 12.5 µM
- GI50 [10]: 1.49 µM
- TGI [10]: 3.9 µM
- GI50 [11]: 1.42 µM
- TGI [11]: 2.75 µM
- GI50 [12]: 1.23 µM
- TGI [12]: 5.22 µM
- GI50 [13]: 0.496 µM
- TGI [13]: 1.76 µM
- GI50 [14]: 1.73 µM
- TGI [14]: 4.19 µM
- GI50 [15]: 3.26 µM
- TGI [15]: 14.3 µM
- GI50 [16]: 1.85 µM
- TGI [16]: 8.82 µM
- GI50 [17]: 2.58 µM
- TGI [17]: 10.5 µM
- GI50 [18]: 1.98 µM
- TGI [18]: 4.17 µM
- GI50 [19]: 3.81 µM
- TGI [19]: 16.1 µM
- GI50 [20]: 2.22 µM
- TGI [20]: 7.73 µM
- GI50 [21]: 3.34 µM
- TGI [21]: 12 µM
- GI50 [22]: 1.42 µM
- TGI [22]: 2.77 µM
- GI50 [23]: 1.55 µM
- TGI [23]: 3.5 µM
- GI50 [24]: 1.75 µM
- TGI [24]: 3.29 µM
- GI50 [25]: 0.373 µM
- TGI [25]: 1.57 µM
- GI50 [26]: 2.35 µM
- TGI [26]: 6.33 µM
- GI50 [27]: 1.55 µM
- TGI [27]: 4.67 µM
- GI50 [28]: 2.35 µM
- TGI [28]: 6.87 µM
- GI50 [29]: 2.38 µM
- TGI [29]: 6.9 µM
- GI50 [30]: 14 µM
- TGI [30]: 28.1 µM
- GI50 [31]: 1.72 µM
- TGI [31]: 3.32 µM
- GI50 [32]: 3.02 µM
- TGI [32]: 9.9 µM
- GI50 [33]: 2.34 µM
- TGI [33]: 6.63 µM
- GI50 [34]: 2.65 µM
- TGI [34]: 10.3 µM
- GI50 [35]: 4.4 µM
- TGI [35]: 20.3 µM
- GI50 [36]: 5.19 µM
- TGI [36]: 17.9 µM
- GI50 [37]: 3.3 µM
- TGI [37]: 20 µM
- GI50 [38]: 2.63 µM
- TGI [38]: 11.9 µM
- GI50 [39]: 2.08 µM
- TGI [39]: 5.48 µM
- GI50 [40]: 3.03 µM
- TGI [40]: 12.5 µM
- GI50 [41]: 4.46 µM
- TGI [41]: 18.7 µM
- GI50 [42]: 1.46 µM
- TGI [42]: 2.86 µM
- GI50 [43]: 2.2 µM
- TGI [43]: 4.89 µM
- GI50 [44]: 5.56 µM
- TGI [44]: 17.8 µM
- GI50 [45]: 3.59 µM
- TGI [45]: 12.8 µM
- GI50 [46]: 3.84 µM
- TGI [46]: 14.4 µM
- GI50 [47]: 3.94 µM
- TGI [47]: 14.6 µM
- GI50 [48]: 4.42 µM
- TGI [48]: 16.3 µM
- GI50 [49]: 1.96 µM
- TGI [49]: 12.4 µM
- GI50 [50]: 1.34 µM
- TGI [50]: 9.42 µM
- GI50 [51]: 2.52 µM
- TGI [51]: 11.4 µM
- GI50 [52]: 2.81 µM
- TGI [52]: 11 µM
- GI50 [53]: 4.68 µM
- TGI [53]: 17.3 µM
- GI50 [54]: 2.69 µM
- TGI [54]: 10.4 µM
- GI50 [55]: 4.27 µM
- TGI [55]: 15.4 µM
- GI50 [56]: 9.9 µM
- TGI [56]: 21.8 µM
- GI50 [57]: 2.96 µM
- TGI [57]: 16.2 µM
